Experimental data: US20260226068A1, “IMIDAZOTRIAZINE IL-17A MODULATORS AND USES THEREOF” (DICE ALPHA, INC., priority 2023, published 2026)

Key:
IL-17A/A = target: T1, IL-17A/A (Homo sapiens, UniProt Q16552); assay: IL-17A/A HEK-Blue cell assay (SEAP reporter); type: cell-based; conditions: HEK-Blue IL-17A reporter cells, IL17A/A 5 ng/mL, 20 hours, SEAP read at A630; read-out: HEK-Blue IL17AA (IC50 for IL-17A/A inhibition)
T1 construct: purchased Genscript Z03228
T1 sequence (Q16552 24-155): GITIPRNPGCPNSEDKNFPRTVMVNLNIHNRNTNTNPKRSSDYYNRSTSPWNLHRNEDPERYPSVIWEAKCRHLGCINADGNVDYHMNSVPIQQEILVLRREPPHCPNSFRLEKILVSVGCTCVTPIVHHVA

IL-17A/F = target: T2, IL-17A/F (Homo sapiens, UniProt Q16552+Q96PD4); assay: IL-17A/F HEK-Blue cell assay (SEAP reporter); type: cell-based; conditions: HEK-Blue IL-17A reporter cells, IL17A/F 5 ng/mL, 20 hours, SEAP read at A630; read-out: HEK-Blue IL17AF (IC50 for IL-17A/F inhibition)
T2 construct: purchased R&D Systems
T2 sequence (Q16552 24-155): T1 sequence (Q16552 24-155)
T2 sequence (Q96PD4 31-163): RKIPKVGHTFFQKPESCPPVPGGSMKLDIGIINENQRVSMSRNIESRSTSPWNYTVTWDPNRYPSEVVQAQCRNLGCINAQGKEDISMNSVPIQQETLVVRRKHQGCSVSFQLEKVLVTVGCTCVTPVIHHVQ

| IC50 (IL-17A/A) [nM] | IC50 (IL-17A/F) [nM] | Structure (SMILES) |
| --- | --- | --- |
| 100 to 1000 | > 1000 | CCn1nccc1C(=O)N[C@H](c1cn2nc(C[C@H]3C[C@@H](C(F)(F)F)CNC3=O)c([C@@H]3CCCN(C)C3)nc2n1)C1CCC(F)(F)CC1 (single isomer, unassigned) [Compound 401] |
| < 100 | 100 to 1000 | CCn1nccc1C(=O)N[C@H](c1cn2nc(CC3C[C@@H](C(F)(F)F)CNC3=O)c(N3CCO[C@H](C)C3)nc2n1)[C@@H]1CCCC(F)(F)C1 (single isomer, unassigned) [Compound 124] |
| < 100 | > 1000 | CCn1nccc1C(=O)N[C@H](c1cn2nc(CC3C[C@@H](C(F)(F)F)CNC3=O)c(N3C[C@H]4C[C@@H]3CO4)nc2n1)[C@H]1CC[C@H](C)CC1 (single isomer, unassigned) [Compound 106] |
| < 100 | 100 to 1000 | CCn1nccc1C(=O)N[C@H](c1cn2nc(C[C@H]3C[C@@H](C(F)(F)F)CNC3=O)c(C3CCCC(F)(F)C3)nc2n1)C1CCC(F)(F)CC1 (single isomer, unassigned) [Compound 271] |

More lines, now with the values behind:

| Structure (SMILES) | IC50 (IL-17A/A) [nM] | IC50 (IL-17A/F) [nM] |
| --- | --- | --- |
| O=C(N[C@H](c1cn2nc(C[C@H]3C[C@@H](C(F)(F)F)CNC3=O)c(C3CCOCC3)nc2n1)C1CCC(F)(F)CC1)c1nonc1C1CC1 [Compound 136, 4-cyclopropyl-N-((1S)-(4,4-difluorocyclohexyl)(2-(((3R,5R)-2-oxo-5-(trifluoromethyl)piperidin-3-yl)methyl)-3-(tetrahydro-2H-pyran-4-yl)imidazo[1,2-b][1,2,4]triazin-6-yl)methyl)-1,2,5-oxadiazole-3-carboxamide] | < 100 | > 1000 |
| CCn1nccc1C(=O)N[C@H](c1cn2nc(C[C@H]3C[C@@H](C(F)(F)F)CNC3=O)c(N3CCN(C)C(C4CC4)C3)nc2n1)C1CCC(F)(F)CC1 (single isomer, unassigned) [Compound 432] | < 100 | 100 to 1000 |
| CCn1nccc1C(=O)N[C@H](c1cn2nc(C[C@H]3C[C@@H](C(F)(F)F)CNC3=O)c(N3CCN4CCCC[C@@H]4C3)nc2n1)C1CCC(F)(F)CC1 [Compound 367, N—((S)-(4,4-difluorocyclohexyl)(3-((R)-octahydro-2H-pyrido[1,2-a]pyrazin-2-yl)-2-(((3R,5R)-2-oxo-5-(trifluoromethyl)piperidin-3-yl)methyl)imidazo[1,2-b][1,2,4]triazin-6-yl)methyl)-1-ethyl-1H-pyrazole-5-carboxamide] | < 100 | < 100 |
| CCn1nccc1C(=O)N[C@H](c1cn2nc(C[C@H]3C[C@@H](C(F)(F)F)CNC3=O)c(C3CCOCC3)nc2n1)C1CCCCCC1 [Compound 289, N—((S)-cycloheptyl(2-(((3R,5R)-2-oxo-5-(trifluoromethyl)piperidin-3-yl)methyl)-3-(tetrahydro-2H-pyran-4-yl)imidazo[1,2-b][1,2,4]triazin-6-yl)methyl)-1-ethyl-1H-pyrazole-5-carboxamide] | < 100 | < 100 |
| CCc1nonc1C(=O)N[C@H](c1cn2nc(C[C@H]3C[C@@H](C(F)(F)F)CNC3=O)c(N3CCOCC3)nc2n1)C1CCCCC1 [Compound 327, N—((S)-cyclohexyl(3-morpholino-2-(((3R,5R)-2-oxo-5-(trifluoromethyl)piperidin-3-yl)methyl)imidazo[1,2-b][1,2,4]triazin-6-yl)methyl)-4-ethyl-1,2,5-oxadiazole-3-carboxamide] | < 100 | > 1000 |
| CCn1nccc1C(=O)N[C@H](c1cn2nc(C[C@H]3C[C@@H](C(F)(F)F)CNC3=O)c(C3CCOCC3)nc2n1)C1CC[C@@H]2C[C@@H]2CC1 (single isomer, unassigned) [Compound 294] | < 100 | < 100 |
| CCn1ncnc1C(=O)N[C@H](c1cn2nc(C[C@H]3C[C@@H](C(F)(F)F)CNC3=O)c(C3CCOCC3)nc2n1)C1CCC(F)(F)CC1 [Compound 363, N—((S)-(4,4-difluorocyclohexyl)(2-(((3R,5R)-2-oxo-5-(trifluoromethyl)piperidin-3-yl)methyl)-3-(tetrahydro-2H-pyran-4-yl)imidazo[1,2-b][1,2,4]triazin-6-yl)methyl)-1-ethyl-1H-1,2,4-triazole-5-carboxamide] | < 100 | > 1000 |
